US12527833B2, “Pharmaceutical composition made from hydrophobic phytochemicals dispersed in sesame oil to enhance bioactivity” (ARJUNA NATURAL PVT. LTD., priority 2017, dated 2026)

Legend:
Assay type in all cases: in vivo
[1] = tested on: Carrageenan induced paw oedema; assay: Carrageenan paw oedema in rats: Boswellia extract, sesame oil and their combinations (Example 8)
Method: The animals were housed in polypropylene cages and maintained under standard animal house conditions (12:12 hour light/dark cycle at 24±2° C. and 45-65% relative humidity). The rats had free access to standard pellet diet and water. […] were divided into 9 groups comprising of 3 rats in each group. The rats were deprived of food, but had free access to drinking water for 12 h prior to the experiment. The treatment was as follows: • Group 1: Untreated control. • Group 2: 10 mg/Kg Diclofenac. • Group 3: 20 mg/Kg Hydrophobic Boswellia extract with 2% AKBA (made as per example 2). • Group 4: 20 mg/Kg Hydrophobic Boswellia extract with 10% AKBA (made as per example 1). • Group 5: 30 mg/Kg Sesame seed oil about 0.9% sesame lignans. • Group 6: 50 mg/Kg Simple blend of Boswellia extract with 2% AKBA with Sesame seed oil with 10% sesame lignans (made as per example 6; using AKBA2). • Group 7: 50 mg/Kg Homogenized dispersion of hydrophobic Boswellia extract with 2% AKBA with sesame oil with 10% sesame lignans. (Made as per example 4). • Group 8: 50 mg/Kg Simple hydrophobic Boswellia extract with 10% AKBA with sesame oil with 10% sesame lignans. (Made as per example 6, F1). • Group 9: 50 mg/Kg Homogenized dispersion hydrophobic Boswellia extract with 10% AKBA with sesame oil with 10% sesame lignans. (Made as per example 4). After 12 hour fasting, baseline paw volume was recorded for each rat using digital plethysmometer (Ugo Basile, […]). Carrageenan (0.1 ml of 1%) in saline (0.9% NaCl) was injected into the plantar surface of the right hind paw of the animals. The experimental groups were given the designated extract/standard orally, 30 minutes prior to the injection of the carrageenan. […] The oedema was expressed as an increase in the volume of paw from baseline value, and the percentage of inhibition for each rat was calculated.

[2] = tested on: Carrageenan induced paw edema; assay: Carrageenan paw edema in rats: Boswellia dispersion at different SSA values (Example 9)
Method: The animals were housed in polypropylene cages and maintained under standard animal house conditions (12:12 hour light/dark cycle at 24±2° C. and 45-65% relative humidity). The rats had free access to standard pellet diet and water. 15 rats were divided into 5 groups comprising of 3 rats in each group. The rats were deprived of food, but had free access to drinking water for 12 h prior to the experiment. The treatment was as follows: After 12 hour fasting, baseline paw volume was recorded for each rat using digital plethysmometer (Ugo Basile, […]). Carrageenan (0.1 ml of 1%) in saline (0.9% NaCl) was injected into the plantar surface of the right hind paw of the animals. The experimental groups were given the designated extract/standard orally, 30 minutes prior to the injection of the carrageenan. After injection of carrageenan, paw volume was recorded at 3 hr to 6 hr post carrageenan. The edema was expressed as an increase in the volume of paw from baseline value, and the percentage of inhibition for each rat was calculated. • Group 1: 50 mg/Kg BS-1 (SSA 200-500 m^2/kg). • Group 2: 50 mg/Kg, BS-2 (SSA 700-1000 m^2/kg) • Group 3: 50 mg/Kg BS-3 (SSA 1100-1200 m^2/kg) • Group 4: 50 mg/Kg BS-4 (SSA>1300 m^2/kg) • Group 5: 10 mg/Kg Diclofenac.

[3] = tested on: Carrageenan induced paw edema; assay: Carrageenan paw edema in rats: different ratios of Boswellia and sesame oil (Example 10)
Method: The animals were housed in polypropylene cages and maintained under standard animal house conditions (12:12 hour light/dark cycle at 24±2° C. and 45-65% relative humidity). The rats had free access to standard pellet diet and water. 27 rats were divided into 9 groups comprising of 3 rats in each group. The rats were deprived of food, but had free access to drinking water for 12 h prior to the experiment. The treatment was as follows: After 12 hour fasting, baseline paw volume was recorded for each rat using digital plethysmometer (Ugo Basile, […]). Carrageenan (0.1 ml of 1%) in saline (0.9% NaCl) was injected into the plantar surface of the right hind paw of the animals. The experimental groups were given the designated extract/standard orally, 30 minutes prior to the injection of the carrageenan. After injection of carrageenan, paw volume was recorded at 3 hr to 6 hr post carrageenan. The edema was expressed as an increase in the volume of paw from baseline value, and the percentage of inhibition for each rat was calculated. Different compositions of sesame oil with boswellia was tested to find out the optimum ratio with enhanced activity. Each composition of boswellia has undergone a regress milling and grinding resulting in SSA of greater than 1.2×10^3 m^2/kg. • Group 1: 50 mg/Kg AKBA10+Sesame oil (2:3). • Group 2: 50 mg/Kg, AKBA10+Sesame oil (5:7) • Group 3: 50 mg/Kg AKBA10+Sesame oil (9:11) • Group 4: 50 mg/Kg AKBA10+Sesame oil (1:3) • Group 5: 50 mg/Kg AKBA10+Sesame oil (1:5) • Group 6: 50 mg/Kg AKBA10+Sesame oil (1:9) • Group 7: 50 mg/Kg AKBA10+Sesame oil (1:1) • Group 8: 50 mg/Kg AKBA10+Sesame oil • Group 9: 10 mg/Kg Diclofenac

With `O=C(O)Cc1ccccc1Nc1c(Cl)cccc1Cl` [Diclofenac] the “percentage inhibition 1 h” value ([1]; 1 h post carrageenan, oral, dose per group 10-50 mg/Kg) was 64%, the “percentage inhibition 3 h” value ([1]; 3 h post carrageenan, oral, dose per group 10-50 mg/Kg) was 84% and the “percentage inhibition 5 h” value ([1]; 5 h post carrageenan, oral, dose per group 10-50 mg/Kg) was 93%. The “percentage inhibition 6 h” value ([1]; 6 h post carrageenan, oral, dose per group 10-50 mg/Kg) was 97%, the Average percentage inhibition ([1]; average of 1, 3, 5, 6 h) was 85% and the “Percentage inhibition (%) 3HR” value ([2]; 3 hr post carrageenan, oral, BS samples 50 mg/kg, Diclofenac 10 mg/kg) was 68%. For the same molecule, the “Percentage inhibition (%) 6HR” value ([2]; 6 hr post carrageenan, oral, BS samples 50 mg/kg, Diclofenac 10 mg/kg) was 94%, the Avrage percentage inhibition ([2]; average of 3HR and 6HR) was 81% and the “Percentage inhibition (%) 3HR” value ([3]; 3 hr post carrageenan, oral, AKBA10+sesame oil 50 mg/Kg, SSA >1.2×10^3 m^2/kg, Diclofenac 10 mg/kg) was 66%. For the same molecule, the “Percentage inhibition (%) 6HR” value ([3]; 6 hr post carrageenan, oral, AKBA10+sesame oil 50 mg/Kg, Diclofenac 10 mg/kg) was 98% and the Average percentage inhibition ([3]; average of 3HR and 6HR) was 82%.
